Assay results taken from paper PMC12587545, “Noncytotoxic polymyxin derivatives enhance antibiotic action against multidrug-resistant Gram-negative bacteria” (Antimicrobial Agents and Chemotherapy, 2025).
Where “and” joins values, the source holds several entries; their conditions need not be identical. Equal entries are not always repeated. Positions of bridges follow the written chain, without caps; N, C: chain ends. Non-standard residues stand in square brackets, D forms with d. Residues, ends and D or L forms follow the SMILES beside them. *: point of attachment. Octanoyl = CCCCCCCC(=O)*; Dab = NCC[C@H](N)C(=O)O; Dap = NC[C@H](N)C(=O)O

Experiments:
P. aeruginosa = experiment: Checkerboard assay (antibiotic potentiation); format: cell-based, Pseudomonas aeruginosa; details: for MICcompound 1: compound 1 alone
P. aeruginosa 259-96916 = experiment: Time-kill kinetics assay; details: monotherapy at 8 µg/mL, LB, 37°C, up to 24 h
A. baumannii AB027 = experiment: Time-kill kinetics assay; details: monotherapy at 8 µg/mL, LB, 37°C, up to 24 h
Protocol: Bactericidal and bacteriostatic activity correspond to a ≥ 3 log10 and a < 3 log10 decrease in bacterial load after 24 h relative to the starting inoculum, respectively ([39]).
The time- and concentration-dependent killing of the antibiotic/compound combinations was assessed using the time-kill kinetics assay by following a previously described protocol ([27][–][29]). Bacterial culture grown overnight was diluted in phosphate-buffered saline (PBS) to 0.5 McFarland turbidity and was further diluted 1:50 in LB. Bacterial cultures treated with varying concentrations of antibiotic alone, compound alone, or the combination of antibiotic and compound were incubated in a shaking incubator at 250 rpm and at 37°C. At designated time points, 100 µL aliquots were taken from the culture tubes, serially diluted in PBS, and plated on LB agar plates. The bacterial colonies were then counted after incubation of the plates for 18 h at 37°C.

E. coli = experiment: Checkerboard assay (antibiotic potentiation); format: cell-based, Escherichia coli; details: compound 1 alone
E. faecium ATCC 27270 = experiment: Checkerboard assay (rifampicin potentiation); format: cell-based; details: compound 1 alone
Protocol: (§1) The interaction between the compounds and the antibiotics was evaluated using the fractional inhibitory concentration (FIC) index. FIC indices of ≤0.5 is synergistic, 0.5 < × ≤ 4 is additive, whereas >4 is antagonistic ([34]). […] .
(§2) The bacterial isolates were acquired from ATCC or the Canadian Ward Surveillance (CANWARD) study ([56]). CANWARD isolates were collected from infected patients admitted to participating medical centers across Canada.
(§3) The antibiotic and compounds were serially diluted 2-fold in CAMHB along the x- and y-axis, respectively, on a 96-well plate that was subsequently incubated with equal volumes of bacterial inoculum overnight at 37°C. Wells containing only media were used as negative controls, and wells containing only bacteria were used as positive controls. Synergy was measured by the FIC index, which is the summation of the individual FICs of the antibiotic and the compound. The FIC is calculated by dividing the MIC of one agent in the presence of another by the MIC of the agent alone. Turbidity was confirmed with a Molecular Devices (United States) EMax Plus microplate reader at a wavelength of 590 nm. The FBS studies were conducted by following a previously published protocol ([29], [50]). The FBS was inactivated by heating at 56°C for 30 min with constant swirling.

[1] = test system: Methicillin-resistant S. aureus ATCC 22592; experiment: Checkerboard assay (rifampicin potentiation); format: cell-based; details: MRSA ATCC 22592; compound 1 alone
Protocol: as §1, §2, §3

E. faecalis ATCC 29212 = experiment: Checkerboard assay (rifampicin potentiation); format: cell-based; details: compound 1 alone
Protocol: as §1, §2, §3

K. pneumoniae = experiment: Checkerboard assay (antibiotic potentiation); format: cell-based, Klebsiella pneumoniae; details: compound 1 alone
E. cloacae = experiment: Checkerboard assay (antibiotic potentiation); format: cell-based, Enterobacter cloacae; details: E. cloacae 121887 (colistin-resistant); compound 1 alone
A. baumannii = experiment: Checkerboard assay (antibiotic potentiation); format: cell-based, Acinetobacter baumannii; details: compound 1 alone

For `CCCCCCCC(=O)N[C@@H](CN)C(=O)N[C@H](C(=O)N[C@@H](CN)C(=O)N[C@H]1CCNC(=O)[C@H]([C@@H](C)O)NC(=O)[C@H](CN)NC(=O)[C@H](CN)NC(=O)[C@H](CC(C)C)NC(=O)[C@@H](Cc2ccccc2)NC(=O)[C@H](CN)NC1=O)[C@@H](C)O` [Compound 1] (Octanoyl-[Dap]T[Dap][Dab][Dap][dF]L[Dap][Dap]T; lactam 4-C), which “MICcompound 1” value (P. aeruginosa; P. aeruginosa 259-96916) is on record?
Its value is >128 µg/mL.

What about the “MICcompound 1” value (P. aeruginosa; P. aeruginosa 262-101856) of the same molecule?
The value was >128 µg/mL.

What about the “MICcompound 1” value (P. aeruginosa; P. aeruginosa 264-105354) of the same molecule?
Its value is >128 µg/mL.

What about the “MICcompound 1” value (P. aeruginosa; P. aeruginosa 101243 (colistin-resistant)) of the same molecule?
Its value is >128 µg/mL.

And the “MICcompound 1” value (P. aeruginosa; P. aeruginosa 114228 (colistin-resistant))?
Its value is >128 µg/mL.

What about the “MICcompound 1” value (P. aeruginosa; P. aeruginosa PAO1, 0% FBS) of the same molecule?
Its value is >128 µg/mL.

What about the “MICcompound 1” value (P. aeruginosa; P. aeruginosa PAO1, 10% FBS (heat-inactivated)) of the same molecule?
Its value is >128 µg/mL.

And the “MICcompound 1” value (P. aeruginosa; P. aeruginosa PAO1, 25% FBS)?
Its value is >128 µg/mL.

What about the “MICcompound 1” value (P. aeruginosa; P. aeruginosa PAO1, 50% FBS) of the same molecule?
Its value is >128 µg/mL.

What about the “MICcompound 1” value (P. aeruginosa; P. aeruginosa PAO1, [Mg2+] 25 mM) of the same molecule?
The value was >128 µg/mL.

What about the “MICcompound 1” value (P. aeruginosa; P. aeruginosa PAO1, [Mg2+] 0.4–0.5 mM (CAMHB)) of the same molecule?
The value was >128 µg/mL.

What about the MICcompound (P. aeruginosa; P. aeruginosa PAO1, compound alone) of the same molecule?
Its MICcompound is >128 µg/mL.

And the “time-kill outcome” value (P. aeruginosa 259-96916)?
The value was “decrease in growth up to 4 h, with regrowth occurring at 8 h”.

And the “time-kill outcome” value (A. baumannii AB027)?
The value was “growth curves similar to that of untreated bacteria”.

What about the “MICcompound 1” value (E. coli; E. coli 94393 (colistin-resistant)) of the same molecule?
The value was >128 µg/mL.

And the “MICcompound 1” value (E. coli; E. coli 94474 (colistin-resistant))?
The value was >128 µg/mL.

And the “MICcompound 1” value (E. faecium ATCC 27270)?
Its value is >128 µg/mL.

What about the “MICcompound 1” value [1] of the same molecule?
The value was >128 µg/mL.

What about the “MICcompound 1” value (E. faecalis ATCC 29212) of the same molecule?
Its value is >128 µg/mL.

And the “MICcompound 1” value (K. pneumoniae; K. pneumoniae 113250 (colistin-resistant))?
Its value is >128 µg/mL.

And the “MICcompound 1” value (K. pneumoniae; K. pneumoniae 116381)?
Its value is >128 µg/mL.

And the “MICcompound 1” value (E. cloacae)?
Its value is >128 µg/mL.

What about the “MICcompound 1” value (A. baumannii; A. baumannii 92247 (colistin-resistant)) of the same molecule?
Its value is >128 µg/mL.

What about the “MICcompound 1” value (A. baumannii; A. baumannii 110193) of the same molecule?
The value was 32 µg/mL and 16 µg/mL.

And the “MICcompound 1” value (A. baumannii; A. baumannii AB027)?
The value was >128 µg/mL.

What about the “MICcompound 1” value (A. baumannii; A. baumannii ATCC 17978, 0% FBS) of the same molecule?
The value was 16 µg/mL.

What about the “MICcompound 1” value (A. baumannii; A. baumannii ATCC 17978, 10% FBS (heat-inactivated)) of the same molecule?
The value was >128 µg/mL.

And the “MICcompound 1” value (A. baumannii; A. baumannii ATCC 17978, 25% FBS)?
The value was >128 µg/mL.

What about the “MICcompound 1” value (A. baumannii; A. baumannii ATCC 17978, 50% FBS) of the same molecule?
Its value is >128 µg/mL.

And the “MICcompound 1” value (A. baumannii; A. baumannii ATCC 17978, [Mg2+] 25 mM)?
The value was >128 µg/mL.

And the “MICcompound 1” value (A. baumannii; A. baumannii ATCC 17978, [Mg2+] 0.4–0.5 mM (CAMHB))?
The value was 16 µg/mL.
